Here are results for 28 compounds from patent publication US20230107216A1, “PANTETHEINE DERIVATIVES AND USES THEREOF” (Comet Therapeutics, Inc., priority 2018, published 2023).

What all share (type): cell-based
For experiment [1], the system named is HepG2 cells. As to the kind of experiment: Glucose uptake (Glucose Uptake-Glo). The note with it: Homo sapiens, read-out: % increase in Glucose Uptake.
Experiment [2] has as its system Methylmalonic Acidemia (MMA) primary fibroblasts Tsi 5224. As to the kind of experiment: Mitochondrial respiration, XFe96 Extracellular Flux Analyzer (OCR/ECAR), MMA fibroblasts Tsi 5224.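 As to Increase in Maximal Respiratory Capacity AUC: relative to vehicle DMSO control.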 Particulars: Homo sapiens, Fibroblast. A digest of the protocol:
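Primary fibroblasts (20000 cells/well) were held 24 h in supplemented DMEM before Seahorse OCR/ECAR profiling. Compounds at 10 to 50 μM or 0.1% DMSO were injected after baseline, then oligomycin 1 μg/ml, FCCP, and rotenone/antimycin A 0.5 μM. Values were normalized to Hoechst nuclear counts, baselined to pre-compound, and expressed relative to vehicle.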

In experiment [3] the test system is HepG2 cells. As to the kind of experiment: Mitochondrial membrane potential (MITO-ID MP detection Kit). The note with it: Homo sapiens, 168 h, 7 days; for activation at 10 µM: read-out: % increase in Mitochondrial Membrane Potential. A digest of the protocol:
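Cells plated at 160000 cells/mL in DMEM with 10% FBS and 1% Pen-Strep, adhered overnight at 37° C., 5% CO2. Exposure to test compounds (50-10 μM) or 0.2% DMSO for 7 days without media change; membrane potential measured with MITO-ID MP detection kit per manufacturer.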

The mark [4] stands for this setting: MMA Tsi 5224, assay condition A (10 mM glucose, 2 mM L-glutamine, 1 mM pyruvate, 10% FBS), read-out: Increase in Maximal Respiratory Capacity AUC.
Where [5] appears, read: MMA Tsi 5224, assay condition D (1 mM glucose, 10% FBS), read-out: Increase in Maximal Respiratory Capacity AUC.
Setting [6] is: MMA Tsi 5224, assay condition D (1 mM glucose, 10% FBS), read-out: Increase in Spare Capacity AUC.
Where [7] appears, read: read-out: % decrease in Mitochondrial Membrane Potential.

Molecules are shown by their SMILES. Where two headings read alike, the source gives them in different places.

Regarding `CC(C)(CO)[C@@H](O)C(=O)NCCC(=O)NCCSC(=O)CCC(=O)O` [Compound 1, (R)-4-((2-(3-(2,4-dihydroxy-3,3-dimethylbutanamido)propanamido)ethyl)thio)-4-oxobutanoic acid], the activation at 10 µM in experiment [1] is at least 30%; in experiment [2] (setting [4]), at least 10%; in experiment [2] (MMA Tsi 5224, assay condition B (1 mM glucose, 2 mM L-glutamine, 1 mM pyruvate, 10% FBS), read-out: Increase in Maximal Respiratory Capacity AUC), at least 10%.

In the case of `CC(C)(CO)[C@@H](O)C(=O)NCCC(=O)NCCSC(=O)CC(=O)CCC(=O)O` [Compound 2, 6-[(2-[3-[(2R)-2,4-dihydroxy-3,3-dimethylbutanamido]propanamido]ethyl)sulfanyl]-4,6-dioxohexanoic acid], in experiment [1], the activation at 10 µM was at least 10%.

On to `COC(=O)CCC(=O)SCCNC(=O)CCNC(=O)[C@H](O)C(C)(C)CO` [Compound 4, Methyl (R)-4-((2-(3-(2,4-dihydroxy-3,3-dimethylbutanamido)propanamido)ethyl)thio)-4-oxobutanoate], for which the inhibition at 10 µM in experiment [3] (10 uM, read-out: % decrease in Mitochondrial Membrane Potential) was over 30%. Also, the activation at 10 µM in experiment [2] (setting [4]), in experiment [2] (setting [5]) and in experiment [2] (setting [6]) was at least 10% each time.

As for `CC(C)=CC(=O)SCCNC(=O)CCNC(=O)[C@H](O)C(C)(C)CO` [Compound 37, S-2-{3-[(R)-2,4-dihydroxy-3,3-dimethylbutyrylamino]propionylamino}ethyl 3-methyl-2-butenethioate], the activation at 10 µM in experiment [2] (setting [5]) is at least 10%.

As for `C[C@@H](O)CC(=O)SCCNC(=O)CCNC(=O)[C@H](O)C(C)(C)CO` [Compound 38, S-2-{3-[(R)-2,4-dihydroxy-3,3-dimethylbutyrylamino]propionylamino} ethyl (R)-3-hydroxybutanethioate], the inhibition at 50 µM in experiment [3] (setting [7]) is over 30%. Also, in experiment [2] (setting [5]), the activation at 10 µM is at least 10%.

As to `CC(C)(CO)[C@@H](O)C(=O)NCCC(=O)NCCSC(=O)CC(O)C(=O)O` (stereo partly drawn) [Compound 39], the inhibition at 50 µM in experiment [3] (setting [7]) was over 50%. Besides, in experiment [2] (setting [4]), the activation at 10 µM is at least 10%.

Take `C[C@@H](O)CC(=O)CC(=O)SCCNC(=O)CCNC(=O)[C@H](O)C(C)(C)CO` [Compound 42, (2R)-2,4-dihydroxy-N-[2-[(2-[[(5R)-5-hydroxy-3-oxohexanoyl]sulfanyl]ethyl)carbamoyl]ethyl]-3,3-dimethylbutanamide]: in experiment [2] (setting [4]), the activation at 10 µM is at least 10%.

Regarding `COC(=O)/C=C/C(=O)SCCNC(=O)CCNC(=O)[C@H](O)C(C)(C)COP(=O)(O)O` [Compound 73, methyl (R,E)-4-((2-(3-(2-hydroxy-3,3-dimethyl-4-(phosphonooxy)butanamido)propanamido)ethyl)thio)-4-oxobut-2-enoate], the inhibition at 50 µM in experiment [3] (setting [7]) was over 30%. Further, the activation at 10 µM in experiment [2] (setting [5]) is at least 10%.

On to `C/C=C/C(=O)SCCNC(=O)CCNC(=O)[C@H](O)C(C)(C)COP(=O)(O)O` [Compound 82, (R)—S-(2-(3-(2-hydroxy-3,3-dimethyl-4-(phosphonooxy)butanamido)propanamido)ethyl) (E)-but-2-enethioate], for which the activation at 10 µM in experiment [3] (10 uM) is 10%; in experiment [2] (setting [5]), at least 10%. Further, in experiment [3] (setting [7]), the inhibition at 50 µM was over 20%.

On to `CC(C)(CO)[C@@H](O)C(=O)NCCC(=O)NCCSC(=O)CCCN` [Compound 370, (2R)—N-[2-([2-[(4-aminobutanoyl)sulfanyl]ethyl]carbamoyl)ethyl]-2,4-dihydroxy-3,3-dimethylbutanamide], for which the activation at 50 µM in experiment [1] was at least 30%.

Turning to `CC(C)(CO)[C@@H](O)C(=O)NCCC(=O)NCCSC(=O)[C@@H](N)Cc1ccc(O)c(O)c1` [Compound 371, (2R)—N-[2-[(2-[[(2S)-2-amino-3-(3,4-dihydroxyphenyl)propanoyl]sulfanyl]ethyl)carbamoyl]ethyl]-2,4-dihydroxy-3,3-dimethylbutanamide], the activation at 10 µM in experiment [1] was at least 30%.

`CCC(=O)CC(=O)SCCNC(=O)CCNC(=O)[C@H](O)C(C)(C)CO` [Compound 382, (2R)-2,4-dihydroxy-3,3-dimethyl-N-[2-([2-[(3-oxopentanoyl)sulfanyl]ethyl]carbamoyl)ethyl]butanamide]: the activation at 50 µM in experiment [1] was at least 30%. The activation at 10 µM in experiment [2] (setting [4]) was at least 10%.

Regarding `CC(O)CC(O)CC(=O)SCCNC(=O)CCNC(=O)[C@H](O)C(C)(C)CO` (stereo partly drawn) [Compound 400], the values for the activation at 10 µM in experiment [3] (10 uM) and in experiment [2] (setting [5]) were over 20% and at least 10%, respectively.

Turning to `CC(O)CC(O)CC(O)CC(=O)SCCNC(=O)CCNC(=O)[C@H](O)C(C)(C)CO` (stereo partly drawn) [Compound 401], in experiment [3] (10 uM), the activation at 10 µM was over 10%.

On to `COC(=O)C(C)C(=O)SCCNC(=O)CCNC(=O)[C@H](O)C(C)(C)CO` (stereo partly drawn) [Compound 405], for which the inhibition at 50 µM in experiment [3] (setting [7]) is over 50%.

Turning to `COC(=O)CC(C(C)=O)C(=O)SCCNC(=O)CCNC(=O)[C@H](O)C(C)(C)CO` (stereo partly drawn) [Compound 410], the activation at 50 µM in experiment [1] was at least 30%. Moreover, the activation at 10 µM in experiment [2] (setting [5]) was at least 10%.

As to `COC(=O)CC[C@H](N)C(=O)SCCNC(=O)CCNC(=O)[C@H](O)C(C)(C)CO` [Compound 411], the activation at 10 µM was 10% in experiment [3] (10 uM), at least 10% in experiment [2] (setting [5]) and at least 10% in experiment [2] (setting [6]). Besides, the inhibition at 50 µM in experiment [3] (setting [7]) is over 20%.

On to `CC(=O)SCCNC(=O)CCNC(=O)[C@H](O)C(C)(C)COC(=O)[C@@H](N)Cc1ccc(O)c(O)c1` [Compound 498, (3R)-3-[(2-[[2-(acetylsulfanyl)ethyl]carbamoyl]ethyl)carbamoyl]-3-hydroxy-2,2-dimethylpropyl (2S)-2-amino-3-(3,4-dihydroxyphenyl)propanoate], for which the activation at 50 µM in experiment [1] is at least 10%.

Consider `CC(C)C(=O)CC(=O)SCCNC(=O)CCNC(=O)[C@H](O)C(C)(C)CO` [Compound 1239, (R)—S-(2-(3-(2,4-dihydroxy-3,3-dimethylbutanamido)propanamido)ethyl) 4-methyl-3-oxopentanethioate], for which, in experiment [2] (setting [5]), the activation at 10 µM was at least 10%.

Turning to `CC(=O)SCCNC(=O)CCNC(=O)[C@H](O)C(C)(C)COC(=O)CCC(=O)O` [Compound 1242, (R)-12-hydroxy-13,13-dimethyl-2,7,11,16-tetraoxo-15-oxa-3-thia-6,10-diazanonadecan-19-oic acid], in experiment [2] (setting [5]), the activation at 10 µM was at least 10%.

For `C[C@H](CC(=O)SCCNC(=O)CCNC(=O)[C@H](O)C(C)(C)CO)OC(=O)CCC(=O)O` [Compound 1243, 4-{[(2R)-4-[(2-{3-[(2R)-2,4-dihydroxy-3,3-dimethylbutanamido]propanamido}ethyl)sulfanyl]-4-oxobutan-2-yl]oxy}-4-oxobutanoic acid], in experiment [2] (MMA Tsi 5224, assay condition A (10 mM glucose, 2 mM L-glutamine, 1 mM pyruvate, 10% FBS), read-out: Increase in Spare Capacity AUC), the activation at 10 µM was at least 10%.

On to `CC(C(=O)SCCNC(=O)CCNC(=O)[C@H](O)C(C)(C)CO)[C@@H](C)O` (stereo partly drawn) [Compound 1244, (2R)-2,4-dihydroxy-N-{2-[(2-{[(3R)-3-hydroxy-2-methylbutanoyl]sulfanyl}ethyl)carbamoyl]ethyl}-3,3-dimethylbutanamide], for which, in experiment [2] (setting [4]), the activation at 10 µM is at least 10%.

Take `CC(=O)OCC(C)(C)[C@@H](OC(C)=O)C(=O)NCCC(=O)NCCSC(C)=O` [Compound 1264, (1R)-3-(acetyloxy)-1-[(2-[[2-(acetylsulfanyl)ethyl]carbamoyl]ethyl)carbamoyl]-2,2-dimethylpropyl acetate]: the activation at 50 µM in experiment [1] is at least 20%.

Turning to `COC(=O)CCC(=O)SCCNC(=O)CCNC(=O)[C@H](OC(=O)CN)C(C)(C)CO` [Compound 1294, methyl 4-[(2-[3-[(2R)-2-[(2-aminoacetyl)oxy]-4-hydroxy-3,3-dimethylbutanamido]propanamido]ethyl)sulfanyl]-4-oxobutanoate], in experiment [1], the activation at 10 µM is at least 30%.

Take `COC(=O)CCC(=O)SCCNC(=O)CCNC(=O)[C@H](OC(=O)CNC(C)=O)C(C)(C)CO` [Compound 1298, methyl 4-[(2-[3-[(2R)-2-[(2-acetamidoacetyl)oxy]-4-hydroxy-3,3-dimethylbutanamido]propanamido]ethyl)sulfanyl]-4-oxobutanoate]: the activation at 50 µM in experiment [1] was at least 20%.

With `CC(C)(CO)[C@@H](O)C(=O)NCCC(=O)NCCSC(=O)CCCO` [Compound 1304, (2R)-2,4-dihydroxy-N-[2-([2-[(4-hydroxybutanoyl)sulfanyl]ethyl]carbamoyl)ethyl]-3,3-dimethylbutanamide], the activation at 10 µM in experiment [1] is at least 20%.

On to `C[C@H](O)CC(=O)CC(=O)SCCNC(=O)CCNC(=O)[C@H](O)C(C)(C)CO` [Compound 1306, (2R)-2,4-dihydroxy-N-[2-[(2-[[(5S)-5-hydroxy-3-oxohexanoyl]sulfanyl]ethyl)carbamoyl]ethyl]-3,3-dimethylbutanamide], for which, in experiment [1], the activation at 10 µM was at least 30%.

In the case of `CC(C)(COC(=O)CCC(=O)O)[C@@H](O)C(=O)NCCC(=O)NCCS` [Compound 1310, (R)-4-(3-hydroxy-4-((3-((2-mercaptoethyl)amino)-3-oxopropyl)amino)-2,2-dimethyl-4-oxobutoxy)-4-oxobutanoic acid], the activation at 10 µM in experiment [3] (10 uM) amounted to 20%. The inhibition at 50 µM in experiment [3] (setting [7]) was over 30%.
